Laboratory results taken from patent US7709223B2, “Method for detecting bacteria with chromogenic substrates for β-D-ribofuranosidase” (priority 2001, dated 2010).
Structures can show the parent of a compound that is named as a salt.

How the values were obtained:
Format in all cases: cell-based
Gram-positive bacteria = assay: Hydrolysis on Columbia agar with ferric ammonium citrate, strain panel; conditions: Gram-positive bacteria tested
Method: (§1) The ribofuranoside derivative of dihydroxyflavone was tested with 194 distinct strains of bacteria. The choice of bacteria included a wide range many of which are important pathogens or commensals commonly isolated from pathological samples.
(§2) The chromogenic β-D-ribofuranoside substrate was added to Columbia agar at a substrate concentration of 300 mg/l. Ferric ammonium citrate was included at 500 mg/l. All ingredients were autoclaved at 116° C. for 20 minutes to ensure sterilisation. Agar plates were then prepared in 90 mm petri dishes. The substrate caused a yellow colouration of the agar.
(§3) For each strain tested, a bacterial suspension was prepared in sterile deionised water at an inoculum of approximately 1.5×10^8 colony forming units per ml. This was achieved using a densitometer. 1 μl of each bacterial suspension was then inoculated onto each plate using a multipoint inoculator. Strains were inoculated in parallel onto Columbia agar containing ferric ammonium citrate with no substrate (negative control).
(§4) After 18 hours incubation, strains were examined visually for the presence of colour. Any strains producing a black colouration on substrate containing media but not on the negative control plates were deemed to be hydrolysing the substrate.

Gram negative bacteria = assay: as above; conditions: 120 Gram negative bacteria tested
Method: as §1, §2, §3, §4

Aeromonas sobria = assay: Hydrolysis on Columbia agar with ferric ammonium citrate; design: key to the marks not given beside the values; conditions: Aeromonas sobria NCTC 11215
Method: as §2, §3, §4

Shigella dysenteriae = assay: as above; design: key to the marks not given beside the values
Method: as §2, §3, §4

Salmonella motevideo = assay: as above; design: key to the marks not given beside the values; conditions: Salmonella motevideo SAX 55
Method: as §2, §3, §4

Salmonella oranienburg = assay: as above; design: key to the marks not given beside the values; conditions: Salmonella oranienburg SAX 56
Method: as §2, §3, §4

Acinetobacter lwoffii = assay: Mixed culture on solid medium with substrate and ferric ion; conditions: mixed culture with Escherichia coli
Method: (§5) The limitations of using a substrate which generates a diffusible end product after hydrolysis on a solid medium are known by those skilled in the art. […] For example a culture plate was prepared containing solid medium and the chromogenic enzyme substrate 3′,4′-dihydroxyflavone-4′-β-D-ribofuranoside along with ferric ion. A culture containing roughly equal numbers of Escherichia coli (β-D-ribofuranosidase positive) and Acinetobacter lwoffii (β-D-ribofuranosidase negative) was grown on the medium. […] The A. lwoffii colonies were colourless. It was possible to differentiate the two species even when the colonies were virtually coincident.

Escherichia coli = assay: as above; conditions: mixed culture with Acinetobacter lwoffii
Method: as §5

[1] = tested on: Staphylococcus haemolyticus; assay: Hydrolysis on Columbia agar with ferric ammonium citrate
Method: as §2, §3, §4

A. lwoffii = assay: as above; conditions: A. lwoffii ATCC 15309
Method: as §2, §3, §4

P. rettgeri = assay: as above; conditions: P. rettgeri NCTC 7475
Method: as §2, §3, §4

Bacillus licusniforms = assay: as above; conditions: Bacillus licusniforms NCIMB 9375
Method: as §2, §3, §4

enterococci = assay: as above; conditions: enterococci (‘faecal streptococci’)
Method: as §2, §3, §4

Streptococci = assay: as above
Method: as §2, §3, §4

Vibrio parahaemolyticus = assay: as above
Method: as §2, §3, §4

Enterococcus faecium = assay: as above
Method: as §2, §3, §4

Shigella genus = assay: as above
Method: as §2, §3, §4

[2] = tested on: Haemolytic streptococcus A; assay: as above
Method: as §2, §3, §4

[3] = tested on: Haemolytic streptococcus C; assay: as above
Method: as §2, §3, §4

Enterococcus faecalis = assay: as above
Method: as §2, §3, §4

P. vulgaris = assay: as above
Method: as §2, §3, §4

P. penneri = assay: as above; conditions: P. penneri PPE 1
Method: as §2, §3, §4

Vibrio cincinnatiensis = assay: as above; conditions: Vibrio cincinnatiensis NCTC 12012
Method: as §2, §3, §4

Listeria innocua = assay: as above; conditions: Listeria innocua PHLS wild
Method: as §2, §3, §4

P. aeruginosa = assay: as above
Method: as §2, §3, §4

[4] = tested on: Streptococcus constellatus; assay: as above; conditions: Streptococcus constellatus NCTC 11325
Method: as §2, §3, §4

Streptococcus agalactiae = assay: as above; conditions: Streptococcus agalactiae NCTC 8181
Method: as §2, §3, §4

[5] = tested on: Arcanobacterium haemolyticus; assay: as above
Method: as §2, §3, §4

Listeria seerigeri = assay: as above; conditions: Listeria seerigeri PHLS wild
Method: as §2, §3, §4

staphylococci = assay: as above; conditions: all of the staphylococci
Method: as §2, §3, §4

Compound: O=c1cc(-c2ccc(OC3OC(CO)C(O)C3O)c(O)c2)oc2ccccc12 [DHF-riboside, 3′,4′-Dihydroxyflavone-4′-β-D-ribofuranoside sodium salt]
- Share of strains active with the substrate (Gram-positive bacteria): 30.8%
- Share of strains that hydrolysed the substrate (Gram negative bacteria): 68.3%
- β-Riboside (hydrolysis) (Aeromonas sobria): ++
- β-Riboside (hydrolysis) (Shigella dysenteriae; Shigella dysenteriae (type 2) NCTC 9952): ++
- β-Riboside (hydrolysis) (Shigella dysenteriae; Shigella dysenteriae (type 3) NCTC 9720): ++
- β-Riboside (hydrolysis) (Shigella dysenteriae; Shigella dysenteriae (type 4) NCTC 9759): ++
- β-Riboside (hydrolysis) (Salmonella motevideo): ++
- β-Riboside (hydrolysis) (Salmonella oranienburg): ++
- Colour of A. lwoffii colonies (Acinetobacter lwoffii): colourless
- Colour of E. coli colonies (Escherichia coli): intense black colonies
- β-Ribofuranoside (hydrolysis) ([1]; Staphylococcus haemolyticus RB 66): +
- β-Ribofuranoside (hydrolysis) ([1]; Staphylococcus haemolyticus RB 67): +
- β-Ribofuranoside (hydrolysis) ([1]; Staphylococcus haemolyticus RB 68): +
- β-Ribofuranoside (hydrolysis) ([1]; Staphylococcus haemolyticus RB 69): +
- β-Ribofuranoside (hydrolysis) ([1]; Staphylococcus haemolyticus RB 70): +
- β-Riboside (hydrolysis) (A. lwoffii): −
- β-Riboside (hydrolysis) (P. rettgeri): +
- β-Ribofuranoside (hydrolysis) (Bacillus licusniforms): −
- Activity with the substrate (enterococci): variable
- Activity with the substrate (Streptococci): almost universally negative
- β-Riboside (hydrolysis) (Vibrio parahaemolyticus; Vibrio parahaemolyticus NCTC 10441): −
- β-Riboside (hydrolysis) (Vibrio parahaemolyticus; Vibrio parahaemolyticus NCTC 10884): −
- β-Riboside (hydrolysis) (Vibrio parahaemolyticus; Vibrio parahaemolyticus NCTC 10903): −
- β-Riboside (hydrolysis) (Vibrio parahaemolyticus; Vibrio parahaemolyticus NCTC 11344): −
- β-Riboside (hydrolysis) (Vibrio parahaemolyticus; Vibrio parahaemolyticus NCTC 12205): −
- β-Ribofuranoside (hydrolysis) (Enterococcus faecium; Enterococcus faecium 121285 - wild ′99): −
- β-Ribofuranoside (hydrolysis) (Enterococcus faecium; Enterococcus faecium, Reference No. 1): −
- β-Ribofuranoside (hydrolysis) (Enterococcus faecium; Enterococcus faecium, Reference No. 2): −
- β-Ribofuranoside (hydrolysis) (Enterococcus faecium; Enterococcus faecium, Reference No. 3): −
- β-Ribofuranoside (hydrolysis) (Enterococcus faecium; Enterococcus faecium, Reference No. 4): +
- β-Ribofuranoside (hydrolysis) (Enterococcus faecium; Enterococcus faecium, Reference No. 5): −
- β-Ribofuranoside (hydrolysis) (Enterococcus faecium; Enterococcus faecium, Reference No. 6): +
- β-Ribofuranoside (hydrolysis) (Enterococcus faecium; Enterococcus faecium, Reference No. 7): −
- β-D-ribofuranosidase activity (Shigella genus): uniformly positive
- β-Ribofuranoside (hydrolysis) ([2]; Reference No. 1): −
- β-Ribofuranoside (hydrolysis) ([2]; Reference No. 2): −
- β-Ribofuranoside (hydrolysis) ([2]; Reference No. 3): −
- β-Ribofuranoside (hydrolysis) ([3]; Reference No. 1): −
- β-Ribofuranoside (hydrolysis) ([3]; Reference No. 67736): −
- β-Ribofuranoside (hydrolysis) ([3]; Reference No. 68350): −
- β-Ribofuranoside (hydrolysis) (Enterococcus faecalis; Reference No. 1): −
- β-Ribofuranoside (hydrolysis) (Enterococcus faecalis; Reference No. 2): +
- β-Ribofuranoside (hydrolysis) (Enterococcus faecalis; Reference No. 3): +
- β-Ribofuranoside (hydrolysis) (Enterococcus faecalis; Reference No. 4): +
- β-Ribofuranoside (hydrolysis) (Enterococcus faecalis; Reference No. 5): +
- β-Ribofuranoside (hydrolysis) (Enterococcus faecalis; Reference No. 6): +
- β-Ribofuranoside (hydrolysis) (Enterococcus faecalis; Reference No. 7): −
- β-Riboside (hydrolysis) (P. vulgaris; P. vulgaris PVU 2): −
- β-Riboside (hydrolysis) (P. vulgaris; P. vulgaris PVU 4): −
- β-Riboside (hydrolysis) (P. vulgaris; P. vulgaris PVU 5): −
- β-Riboside (hydrolysis) (P. penneri): −
- β-Riboside (hydrolysis) (Vibrio cincinnatiensis): −
- β-Ribofuranoside (hydrolysis) (Listeria innocua): −
- β-Riboside (hydrolysis) (P. aeruginosa; P. aeruginosa ATCC 10145): +
- β-Riboside (hydrolysis) (P. aeruginosa; P. aeruginosa NCTC 10662): +
- β-Ribofuranoside (hydrolysis) [4]: −
- β-Ribofuranoside (hydrolysis) (Streptococcus agalactiae): −
- Activity with the substrate ([5]; Arcanobacterium haemolyticum): active
- β-Ribofuranoside (hydrolysis) ([5]; Arcanobacterium haemolyticus NCTC 52): +
- β-Ribofuranoside (hydrolysis) (Listeria seerigeri): −
- Activity with the substrate (staphylococci): positive
